Results taken from patent US8951972B2, “FGFR1 extracellular domain combination therapies for lung cancer” (Five Prime Therapeutics, Inc., priority 2010, dated 2015).

Key:
[1] = tested on: A549 Non-Small Cell Lung Cancer (NSCLC) Xenograft; assay: A549 non-small cell lung cancer (NSCLC) xenograft model, tumor volume; assay type: in vivo, SCID mice
Method: Six weeks old female SCID mice were purchased from Charles River Laboratories (Wilmington, Mass.) and were acclimated for 1 week before the start of the study. […] The cells were implanted subcutaneously over the right flank of the mice at 5×10^6 cells/100 μl/mouse. One day after tumor implantation, mice were randomized according to body weight at 10 mice per group.
The tumor volume and body weight of the mice were monitored twice a week throughout each study.
The tumor volume of each group of mice at the end of each study was analyzed by one-way ANOVA followed by Tukey's test.
Cisplatin was purchased from Sigma-Aldrich (St. Louis, Mo.; Cat. No. P4394), formulated in 0.9% saline, and administered i.p. at 3.5 mg/kg ([…]) once per week for six weeks. Saline was used as negative control and was administered i.p. at 100 μl per mouse twice a week for six weeks.
On day 42, when the average tumor volume in the vehicle group reached 1300 mm^3, the mice were euthanized by isoflurane inhalation and cervical dislocation.
FGFR1-ECD.339-Fc was formulated in 0.9% Saline for Injection USP at 3 mg/ml. […] FGFR1-ECD.339-Fc was administered intraperitoneally (i.p.) at 15 mg/kg twice per week for 5 weeks. Paclitaxel was administered i.p. at 18 mg/kg on days 8, 12, and 15.
When the average tumor volume in vehicle control group reached ˜500 mm^3, the mice were euthanized by isoflurane inhalation and cervical dislocation.
FGFR1-ECD.339-Fc was formulated in 0.9% Saline for Injection USP at 3 mg/ml. 5-FU was purchased from Sigma-Aldrich (St. Louis, Mo.; Cat. No. F6627) and was initially dissolved in dimethyl sulfoxide (DMSO, Sigma-Aldrich, St. Louis, Mo.; Cat. No. D8418-50) at the concentration of 50 mg/ml as a stock solution. The stock solution was further diluted in 0.9% Sodium Chloride Injection USP to 6.6 mg/ml (for 33 mg/kg dosing). FGFR1-ECD.339-Fc was administered intraperitoneally (i.p.) at 15 mg/kg twice per week for four weeks. 5-FU was administered i.p. at 33 mg/kg twice a week for three weeks.
Mice were euthanized on day 31 by isoflurane inhalation and cervical dislocation.
FGFR1-ECD.339-Fc was formulated in PBS at 3 mg/ml and administered intraperitoneally (i.p.) at 15 mg/kg (300 μg/100 μl/mouse) twice a week for four weeks. Docetaxel was administered i.p. at 3 mg/kg or 10 mg/kg twice per week for four weeks.
Mice in the albumin control group were euthanized on day 32 by isoflurane inhalation and cervical dislocation when the average tumor volume in the group reached 1000 mm^3.

[2] = Body weight of the mice in the xenograft studies; assay type: in vivo; settings: for Body weight / tolerability: 250 mg/kg; for Body weight (weight loss): A549 study
[3] = tested on: H520 Non-Small Cell Lung Cancer (NSCLC) Xenograft; assay: H520 non-small cell lung cancer (NSCLC) xenograft model, tumor volume; assay type: in vivo, SCID mice
Method: Dosing for all groups began one day post tumor implantation.
In combination groups, FGFR1-ECD.339-Fc and pemetrexed were administered on the same schedule as when given as single agents, and were administered concurrently on days 1, 4, 8, and 11.

[4] = tested on: Colo205 Colon Cancer Xenograft; assay: Colo205 colon cancer xenograft model, tumor volume; assay type: in vivo, SCID mice
Method: Cells were resuspended in a solution of 50%/v PBS and 50%/v Matrigel at a concentration of 25 million cells/ml. Resuspended cells were kept on ice until implantation. […] On day 0, 2.5 million cells/100 μl were implanted over the right flank of the each mouse using a 27G1/2 needle. One day after tumor implantation, the mice were randomized according to the body weight.
Leucovorin (LV) was also purchased from Sigma-Aldrich (Cat. No. F8259) and was formulated in 0.9% Sodium Chloride Injection USP at 2 mg/ml (for 10 mg/kg dosing), to 4 mg/ml (for 20 mg/kg dosing), and to 6 mg/ml (for 30 mg/kg dosing).
In the first experiment, FGFR1-ECD.339-Fc was combined with three different concentrations of 5-FU/leucovorin. In the second experiment, FGFR1-ECD.339-Fc was combined with either bevacizumab or 5-FU/leucovorin, or both. The double line separates the groups from the two experiments.
When the average tumor volume in a group was near 600 mm^3, the mice in that group were euthanized by isoflurane inhalation and cervical dislocation.
The order of effectiveness of the various treatments was evaluated two ways: 1) the average tumor volume in each group on a single time point (day); and 2) time for the average tumor volume in each group to reach 500 mm^3 (see the dotted line in FIG. 11E).
Leucovorin was also purchased from Sigma-Aldrich (Cat. No. F8259) and was formulated in 0.9% Sodium Chloride Injection USP at 2 mg/ml (for 10 mg/kg dosing).
5-FU and leucovorin were each administered i.p. at 10 mg/kg daily for five days. Oxaliplatin was administered i.p. at 5 mg/kg, 10 mg/kg, or 15 mg/kg in one dose on day 1.
Mice were euthanized on day 28 by isoflurane inhalation and cervical dislocation.

[5] = day 42, FGFR1-ECD.339-Fc 20 mg/kg i.p. 2x/wk x 6 wks, cisplatin 3.5 mg/kg i.p. 1x/wk x 6 wks
[6] = day 24, FGFR1-ECD.339-Fc 15 mg/kg i.p. 3x/wk x 4 wks, bevacizumab 1 mg/kg i.p. 2x/wk x 4 wks, 5-Fu/LV 10 mg/kg each i.p. q.d. x 5 days

Molecule: O=c1[nH]cc(F)c(=O)[nH]1 [5-FU, 5-fluoro-1H-pyrimidine-2,4-dione, reference compound]
- Fractional tumor volume (FTV), each treatment alone ([1]; day 31, FGFR1-ECD.339-Fc 15 mg/kg i.p. 2x/wk x 4 wks, 5-FU 33 mg/kg i.p. 2x/wk x 3 wks): 1.04

Molecule: N.N.[Cl][Pt][Cl] [Cisplatin, (SP-4-2)-diamminedichloridoplatinum, reference compound]
- Mean Tumor volume mm^3(±SD) [1, 5]: 682 (±195) mm^3
- Tumor growth inhibition (%) [1, 5]: 49%
- Fractional tumor volume (FTV) relative to control, each treatment alone ([1]; day 42, FGFR1-ECD.339-Fc 20 mg/kg, cisplatin 3.5 mg/kg): 0.5

Molecule: CC(=O)O[C@H]1C(=O)[C@@]2(C)[C@H]([C@H](OC(=O)c3ccccc3)[C@]3(O)C[C@H](OC(=O)[C@H](O)[C@@H](NC(=O)c4ccccc4)c4ccccc4)C(C)=C1C3(C)C)[C@]1(OC(C)=O)CO[C@@H]1C[C@@H]2O [Paclitaxel, (2α,4α,5β,7β,10β,13α)-4,10-bis(acetyloxy)-13-{[(2R,3S)-3-(benzoylamino)-2-hydroxy-3-phenylpropanoyl]oxy}-1,7-dihydroxy-9-oxo-5,20-epoxytax-11-en-2-yl benzoate, reference compound]
- Fractional tumor volume (FTV), each treatment alone ([1]; day 31, FGFR1-ECD.339-Fc 15 mg/kg i.p. 2x/wk x 5 wks, paclitaxel 18 mg/kg i.p. days 8, 12, 15): 0.57
- Fractional tumor volume (FTV), each treatment alone ([1]; day 38, FGFR1-ECD.339-Fc 15 mg/kg i.p. 2x/wk x 5 wks, paclitaxel 18 mg/kg i.p. days 8, 12, 15): 0.50

Molecule: Nc1nc2[nH]cc(CCc3ccc(C(=O)N[C@@H](CCC(=O)O)C(=O)O)cc3)c2c(=O)[nH]1 [Pemetrexed, (S)-2-[4-[2-(4-amino-2-oxo-3,5,7-triazabicyclo[4.3.0]nona-3,8,10-trien-9-yl)ethyl]benzoyl]aminopentanedioic acid, reference compound]
- Body weight / tolerability ([2]; H520 study, high dose of pemetrexed, 250 mg/kg i.p. QD x 5, FIG. 4B): approaching the maximum tolerated dose
- Body weight / tolerability ([2]; mouse, in vivo, ip): initially lost significant body weight
- Tumor inhibition over the course of the study (mean tumor volume) ([3]; FIG. 4A, highest dose of pemetrexed (250 mg/kg), alone or with FGFR1-ECD.339-Fc 15 mg/kg): did not appear to inhibit tumor growth
- Tumor inhibition over the course of the study (mean tumor volume) ([3]; FIGS. 2A, 3A, 4A, FGFR1-ECD.339-Fc 15 mg/kg, pemetrexed alone at the low or medium dose (62.5 or 125 mg/kg), combination dosed concurrently): resulted in tumor inhibition

Molecule: CC[C@]1(O)C[C@H]2CN(CCc3c([nH]c4ccccc34)[C@@](C(=O)OC)(c3cc4c(cc3OC)N(C=O)[C@H]3[C@@](O)(C(=O)OC)[C@H](OC(C)=O)[C@]5(CC)C=CCN6CC[C@]43[C@@H]65)C2)C1 [Vincristine, methyl (1R,9R,10S,11R,12R,19R)-11-(acetyloxy)-12-ethyl-4-[(13S,15S,17S)-17-ethyl-17-hydroxy-13-(methoxycarbonyl)-1,11-diazatetracyclo[13.3.1.0^4,12.0^5,10]nonadeca-4(12),5,7,9-tetraen-13-yl]-8-formyl-10-hydroxy-5-methoxy-8,16-diazapentacyclo[10.6.1.0^1,9.0^2,7.0^16,19]nonadeca-2,4,6,13-tetraene-10-carboxylate, reference compound]
- Body weight (weight loss) ([2]; higher dose of vincristine (1.5 mg/kg i.p. days 27, 34, 41), FIG. 9C): lost weight
- Body weight (weight loss) ([2]; lower dose of vincristine (1 mg/kg i.p. days 8, 15, 22), data not shown): did not lose weight
- Fractional tumor volume (FTV), each treatment alone ([1]; day 39, FGFR1-ECD.339-Fc 15 mg/kg i.p. 2x/wk (start day 1), vincristine 1 mg/kg i.p. days 8, 15, 22): 0.53
- Fractional tumor volume (FTV), each treatment alone ([1]; day 46, FGFR1-ECD.339-Fc 15 mg/kg i.p. 2x/wk (start day 1), vincristine 1 mg/kg i.p. days 8, 15, 22): 0.55
- Fractional tumor volume (FTV), each treatment alone ([1]; day 70, FGFR1-ECD.339-Fc 20 mg/kg i.p. 2x/wk (start day 19), vincristine 1.5 mg/kg i.p. days 27, 34, 41): 0.41

Molecule: Bevacizumab: recombinant humanized anti-VEGF monoclonal antibody [reference compound]
- Fractional tumor volume (FTV), each treatment alone ([4]; Day 24, FGFR1-ECD.339-Fc 15 mg/kg i.p. 3x/wk x 4 wks, bevacizumab 1 mg/kg i.p. 2x/wk x 4 wks, 5-Fu/LV 10 mg/kg each q.d. x 5 days): 0.58
- Order of antitumor effect of the treatment groups ([4]; by average tumor volume on a single day and by time for average tumor volume to reach 500 mm^3 (FIG. 11E), value gives the next-ranked group): >FGFR1-ECD.339-Fc
- Mean Tumor volume mm^3(±SD) [4, 6]: 405 (±56) mm^3
- Tumor growth inhibition (%) [4, 6]: 41%
